Results published in US10766888B1, “HMOX1 inducers” (Mitobridge Inc., priority 2019, dated 2020).
Converted amounts (≈) assume the structure as drawn. Like-named read-outs stand apart in the source and are kept apart here.

Key:
[1] = Kinetic solubility; format: physicochemical; details: Dulbecco's phosphate buffer saline (DPBS), aqueous buffer, kinetic from dmso stock, DPBS pH 7.4, 25° C., 200 μM test compound
In short: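 Compound from 10 mM DMSO stock diluted to 200 μM final in DPBS pH 7.4 and, separately, in DMSO, in duplicate. Shaken 16 h at 25 °C, then centrifuged 20 min at 25 °C. Supernatant analysed by HPLC.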

[2] = biological target: T1, Human BACH1 (Homo sapiens, UniProt O14867); test: Microscale thermophoresis (MST) assay / Bach 1 binding assay; details: 10 nM fluorescently labeled BACH1(aa179-736), 25° C.
T1 construct: 10×HIS-GP-BACH1(aa179-736)-Thrombin-FLAG; 10xHis (N); GP linker (Gly-Pro) (N); Thrombin cleavage site (C); FLAG (C); host or cells: Sf9 insect cells
T1 sequence (O14867 179-736): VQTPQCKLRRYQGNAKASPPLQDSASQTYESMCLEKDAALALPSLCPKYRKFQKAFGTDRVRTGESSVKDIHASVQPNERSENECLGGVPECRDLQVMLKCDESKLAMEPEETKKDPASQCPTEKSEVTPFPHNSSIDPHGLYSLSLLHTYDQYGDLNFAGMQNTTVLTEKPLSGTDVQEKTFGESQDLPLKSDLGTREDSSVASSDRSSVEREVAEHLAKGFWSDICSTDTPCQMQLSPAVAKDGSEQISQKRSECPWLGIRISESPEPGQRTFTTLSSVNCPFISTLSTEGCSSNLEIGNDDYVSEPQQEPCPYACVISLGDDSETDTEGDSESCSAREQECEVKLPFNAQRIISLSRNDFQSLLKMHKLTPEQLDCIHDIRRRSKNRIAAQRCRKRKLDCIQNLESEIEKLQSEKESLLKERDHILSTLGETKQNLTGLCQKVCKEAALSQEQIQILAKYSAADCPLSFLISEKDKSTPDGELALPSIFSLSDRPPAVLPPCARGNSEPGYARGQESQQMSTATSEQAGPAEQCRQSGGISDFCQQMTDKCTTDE
Description: Example 146. Microscale Thermophoresis (MST) Assay/Bach 1 Binding Assay
Outline of Protein Expression/Production
Human BACH1 (construct-ID: 10×HIS-GP-BACH1(aa179-736)-Thrombin-FLAG) was expressed in Sf9 insect cells. Protein purification was performed using affinity chromatography, followed by size-exclusion chromatography. Quality of resulting protein was judged using SDS-PAGE analysis.
The MST technology is based on measurement of protein movement along a temperature gradient. Thereby, fluorescently labeled protein is loaded into capillaries, where an infrared laser heats a small volume. Before and during heating, fluorescent intensity is measured at the site of irradiation and the loss of fluorescence in the IR laser focus is quantified.
Two major factors contribute to change of fluorescence signal. First of all, the so-called TRIC (Temperature Related Intensity Change) effect is caused by the temperature-dependency of fluorophore's quantum yield. Herein, the extent of the temperature dependence depends on the chemical environment, which may be changed by the binding of a ligand (e.g. compound, peptide) to the target. Moreover, Kd value between ligand and target can depend on temperature. Second, thermophoresis, which is defined as movement of fluorescent molecules along temperature gradient, is a major contributor to change of fluorescence. Hereby, protein movement along the gradient depends on hydrodynamic radius, charge and hydration shell. These properties can change upon association of the labeled protein with another species, e.g. compound. Thereby, MST detects the differences in protein movement with increasing ligand concentration: from this, the fraction of ligand bound protein and a Kd value can be determined.
For Kd determination of compounds binding BACH1, the following protocol was applied: 10×HIS-GP-BACH1(aa179-736)-Thrombin-FLAG (expressed and purified at Proteros) was fluorescently labeled via its lysine-residues (2nd gen NHS-NT.647 dye).
Experiments were performed using the experimental device Monolith NT.115 Pico, NanoTemper Technologies, with MST power set to medium and excitation power set to 2% at a reaction temperature of 25° C.
10 nM fluorescently labeled BACH1 was applied to reaction buffer containing 50 mM HEPES pH 8.0, 100 mM NaCl, 5% glycerol, 0.05% Tween20 and 1 mM DTT in a reaction volume of 8 μL using Monolith NT.115 Premium Capillaries. Compounds were applied at a maximal concentration of 103 μM with 15 subsequent factor 2 dilutions.

[3] = system: Human Heme Oxygenase-1 (HMOX-1); test: ELISA assay to measure human heme oxygenase-1 (HMOX-1) in HepG2 lysate; format: cell-based
In short: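 Treated HepG2 cells were lysed in PBS with 0.5% Triton X100, 1 mM EDTA and protease inhibitors, and lysates were diluted 1:20. HO-1 was measured by sandwich ELISA (biotinylated detection antibody, streptavidin-HRP, chemiluminescence) at room temperature against a standard curve from 20 ng/ml. EC50 and fold change were expressed relative to DMSO control.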

[4] = PD study: compound concentration in mouse liver; format: in vivo, C57BL/6 mice; details: male, C57BL/6, mouse, 50 mg/kg, 50 mpk oral; for concentration at 3 h: read-out: Liver Conc uM (3 h); for concentration at 6 h: read-out: Liver Conc uM (6 h)
Description: 9-10 week old male C57BL/6 mice were dosed orally with 50 mg/kg of vehicle or compound formulated in 5% w/v tween 80 and 0.5% methyl cellulose. At indicated time points (3 and 6 hours or or 4 and 8 hours post-dosing as shown in the results below), whole blood was collected, animal was sacrificed and liver was collected. Blood samples were transferred to vials containing 4 μL of 10% w/v EDTA, centrifuged at 6000 rpm for 8 in below 10° C. to obtain plasma. Samples were frozen and later processed for HMOX1 protein levels as indicated below: […]

[5] = biological target: hERG channel (Homo sapiens, UniProt Q12809); test: hERG manual patch clamp assay; format: cell-based; details: HEK 293 cells stably expressing hERG channel, pH 7.35, 10 μM compound
Description: Cell Lines and Cell Culture
HEK 293 cell line stably expressing hERG channel (Cat # K1236) was purchased from Invitrogen. The cells were cultured in 85% DMEM, 10% dialyzed FBS, 0.1 mM NEAA, 25 mM HEPES, 100 U/mL Penicillin-Streptomycin and 5 μg/mL Blasticidin and 400 μg/mL Geneticin. Cells were split using TrypLE™ Express about three times a week, and maintained between ˜40% to ˜80% confluence. Before the assay, the cells were transferred onto the coverslips at 5×10^5 cells/per 6 cm cell culture dish and induced with doxycycline at 1 μg/mL for 48 hours.
• 1) External solution (in mM): 132 NaCl, 4 KCl, 3 CaCl2, 0.5 MgCl2, 11.1 glucose, and 10 HEPES (pH adjusted to 7.35 with NaOH) • 2) Internal solution (in mM): 140 KCl, 2 MgCl2, 10 EGTA, 10 HEPES and 5 MgATP (pH adjusted to 7.35 with KOH) • 3) hERG currents were tested in presence of 10 μM compound concentration with final concentration of DMSO of 0.1%. Experimental Procedure • 1) Removed the coverslip from the cell culture dish and placed it on the microscope stage in bath chamber. • 2) Located a desirable cell using the 10× objective. Located the tip of the electrode under the microscope using the 10× objective by focusing above the plane of the cells. Once the tip was in focus, advanced the electrode downwards towards the cell using the coarse controls of the manipulator, while simultaneously moving the objective to keep the tip in focus. • 3) When directly over the cell, switched to the 40× objective and used the fine controls of the manipulator to approach the surface of the cell in small steps. • 4) Applied gentle suction through the side-port of the electrode holder to form a gigaohm seal. • 5) Used the Cfast to remove the capacity current that was in coincidence with the voltage step. Obtained the whole cell configuration by applying repetitive, brief, strong suction until the membrane patch ruptured. • 6) Set membrane potential to −60 mV at this point to ensure that hERG channels were not • open. The spikes of capacity current should then be cancelled using the Cslow on the amplifier. 7) Set holding potential to −90 mV for 500 ms; recorded current at 50 kHz and filtered at 10 kHz. Leaking current was tested at −80 mV for 500 ms. • 8) The hERG current was elicited by depolarizing at +30 mV for 4.8 seconds and then the voltage was taken back to −50 mV for 5.2 seconds to remove the inactivation and observe the deactivating tail current. The maximum amount of tail current size was used to determine hERG current amplitude. • 9) Recorded current for 120 seconds to assess the current stability. Only stable cells with recording parameters above threshold were applied for the compound administrations. • 10) Firstly vehicle control was applied to the cells to establish the baseline. […] In order to ensure the good performance of cultured cells and operations, the positive control, Dofetilide, with 5 dose concentration was also used to test the same batch of cells. Data Analysis
The following criteria were used to determine data acceptability. • 1) Initial seal resistance >1 GΩ; • 2) Leak currents <50% of the control peak tail currents at any time; • 3) The peak tail amplitude >250 pA; • 4) Membrane resistance Rm>500 MΩ; • 5) Access resistance (Ra)<10 MΩ; • 6) Apparent run-down of peak current <2.5% per min.
Data that met the above criteria for hERG current quality were further analyzed as the following steps. • 1) Percent hERG current inhibition was calculated using the following equation. • Note: PatchMaster or Clampfit software was used to extract the peak current from the original data.
[formula] • 2) The dose response curve of test compounds was plotted with percentage of hERG current inhibition against the concentration of test compounds using Graphpad Prism 6.0, and fit to a sigmoid dose-response curve with a variable slope.

[6] = human HMOX1 protein level in HepG2 lysate, * = average of 2 or more EC50 determinations, NA = Not Active, read-out: EC50
[7] = HepG2, human HMOX1, as listed in Table 5, read-out: HMOX1 EC50 h

hERG channel, sequence (Q12809 whole entry): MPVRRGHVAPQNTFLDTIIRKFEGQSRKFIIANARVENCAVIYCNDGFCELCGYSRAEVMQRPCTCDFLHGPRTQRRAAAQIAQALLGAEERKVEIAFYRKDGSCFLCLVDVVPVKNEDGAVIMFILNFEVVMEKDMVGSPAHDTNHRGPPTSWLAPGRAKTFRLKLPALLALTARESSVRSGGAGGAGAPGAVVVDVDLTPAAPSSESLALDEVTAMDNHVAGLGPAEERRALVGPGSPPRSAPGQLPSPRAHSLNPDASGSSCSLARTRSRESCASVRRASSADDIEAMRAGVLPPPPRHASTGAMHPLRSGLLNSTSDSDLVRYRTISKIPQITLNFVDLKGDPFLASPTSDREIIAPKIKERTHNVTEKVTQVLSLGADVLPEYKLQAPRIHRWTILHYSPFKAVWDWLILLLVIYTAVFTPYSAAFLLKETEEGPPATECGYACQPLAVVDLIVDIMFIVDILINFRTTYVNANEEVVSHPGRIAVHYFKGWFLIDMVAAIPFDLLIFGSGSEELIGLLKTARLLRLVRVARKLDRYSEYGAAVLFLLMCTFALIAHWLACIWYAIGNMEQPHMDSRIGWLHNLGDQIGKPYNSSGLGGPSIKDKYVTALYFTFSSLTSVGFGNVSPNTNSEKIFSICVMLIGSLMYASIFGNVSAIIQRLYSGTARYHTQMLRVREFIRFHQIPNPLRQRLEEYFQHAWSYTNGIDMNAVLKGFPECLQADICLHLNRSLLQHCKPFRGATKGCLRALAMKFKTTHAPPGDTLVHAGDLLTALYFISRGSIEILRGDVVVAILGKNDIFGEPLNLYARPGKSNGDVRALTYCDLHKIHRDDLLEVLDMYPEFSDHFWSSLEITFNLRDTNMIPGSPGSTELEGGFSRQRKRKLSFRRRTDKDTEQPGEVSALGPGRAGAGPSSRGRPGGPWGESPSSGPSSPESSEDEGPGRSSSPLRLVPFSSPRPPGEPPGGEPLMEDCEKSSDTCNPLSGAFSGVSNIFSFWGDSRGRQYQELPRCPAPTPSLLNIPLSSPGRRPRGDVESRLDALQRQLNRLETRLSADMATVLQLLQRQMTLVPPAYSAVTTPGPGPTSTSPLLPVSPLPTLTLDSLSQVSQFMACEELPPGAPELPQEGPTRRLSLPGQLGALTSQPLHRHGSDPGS

| Compound | solubility at 16 h [1] [µM] | Kd [2] [nM] | EC50 [3, 6] [nM] | concentration at 3 h [4] [µM] | concentration at 6 h [4] [µM] | EC50 [3, 7] [nM] | inhibition at 10 µM [5] [%] |
| --- | --- | --- | --- | --- | --- | --- | --- |
| Cn1c(Nc2nc3ccc(C(F)(F)F)cc3o2)nc2cc(C(=O)NCCO)ccc21 [Example 33, N-(2-hydroxyethyl)-1-methyl-2-((6-(trifluoromethyl)benzo[d]oxazol-2-yl)amino)-1H-benzo[d]imidazole-5-carboxamide] | 0.9 (≈ 0.377 µg/mL) | 260 | 300 | – | – | – | – |
| Cn1c(Nc2nc3cc(OC(F)(F)F)ccc3[nH]2)nc2cc(C(=O)O)ccc21 [Example 13, 1-methyl-2-((5-(trifluoromethoxy)-1H-benzo[d]imidazol-2-yl)amino)-1H-benzo[d]imidazole-5-carboxylic acid] | – | – | 1900 | 63 | 5.4 | 1900 | 34 |
| COCCONC(=O)c1ccc2c(c1)nc(Nc1nc3ccc(C(F)(F)F)cc3o1)n2C [Example 124, N-(2-methoxyethoxy)-1-methyl-2-((6-(trifluoromethyl)benzo[d]oxazol-2-yl)amino)-1H-benzo[d]imidazole-5-carboxamide] | < 2 | 200 | 200 | – | – | – | – |
| COCCNC(=O)c1ccc2c(c1)nc(Nc1nc3ncccc3o1)n2C [Example 112, N-(2-methoxyethyl)-1-methyl-2-(oxazolo[4,5-b]pyridin-2-ylamino)-1H-benzo[d]imidazole-5-carboxamide] | – | 560 | – | – | – | – | – |
| Cn1c(Nc2nc3ccc(OC(F)(F)F)cc3o2)nc2cc(C(=O)NCCO)ccc21 [Example 53, N-(2-hydroxyethyl)-1-methyl-2-((6-(trifluoromethoxy)benzo[d]oxazol-2-yl)amino)-1H-benzo[d]imidazole-5-carboxamide] | 7.3 (≈ 3.18 µg/mL) | – | 1100 | – | – | – | 70 |
| Cn1c(Nc2nc3ccccc3o2)nc2cc(C(=O)NCCN3CCCC3)ccc21 [Example 28, 2-(benzo[d]oxazol-2-ylamino)-1-methyl-N-(2-(pyrrolidin-1-yl)ethyl)-1H-benzo[d]imidazole-5-carboxamide] | 11.3 (≈ 4.57 µg/mL) | – | 1600 | – | – | – | 64 |
| Cn1c(Nc2nc3ccc(OC(F)(F)F)cc3o2)nc2cc(C(=O)O)ccc21 [Example 44, 1-methyl-2-((6-(trifluoromethoxy)benzo[d]oxazol-2-yl)amino)-1H-benzo[d]imidazole-5-carboxylic acid] | – | – | 1300 | 217 | 162 | 2000 | 15 |
| Cn1c(Nc2nc3ccccc3o2)nc2cc(C(=O)NCCO)ccc21 [Example 16, 2-(benzo[d]oxazol-2-ylamino)-N-(2-hydroxyethyl)-1-methyl-1H-benzo[d]imidazole-5-carboxamide] | 11.7 (≈ 4.11 µg/mL) | – | 700 | – | – | – | 35 |
| CN(C)CC(=O)NCCONC(=O)c1ccc2c(c1)nc(Nc1nc3ccccc3o1)n2C [Example 121, 2-(benzo[d]oxazol-2-ylamino)-N-(2-(2-(dimethylamino)acetamido)ethoxy)-1-methyl-1H-benzo[d]imidazole-5-carboxamide] | 9 (≈ 4.06 µg/mL) | – | 1400 | – | – | – | 66 |
